{
  "source": "patent US7456199B2",
  "about": "“Biphenyl compounds useful as muscarinic receptor antagonists” (Theravance, Inc., priority 2004, dated 2008)",
  "system": "MCh depressor responses",
  "test": "Methacholine-induced depressor responses in conscious guinea pigs",
  "type": "in vivo, guinea pig",
  "conditions": "inhalation",
  "text": "Healthy, adult, male Sprague-Dawley guinea pigs (Harlan, Indianapolis, Ind.), weighing between 200 and 300 g were used in these studies. Under isoflurane anesthesia (to effect), animals were instrumented with common carotid artery and jugular vein catheters (PE-50 tubing). The catheters were exteriorized utilizing a subcutaneous tunnel to the subscapular area. All surgical incisions were sutured with 4-0 Ethicon Silk and the catheters locked with heparin (1000 units/mL). Each animal was administered saline (3 mL, SC) at the end of surgery as well as buprenorphine (0.05 mg/kg, IM). Animals were allowed to recover on a heating pad before being returned to their holding rooms.\nApproximately 18 to 20 hours following surgery, the animals were weighed and the carotid artery catheter on each animal was connected to a transducer for recording arterial pressure. Arterial pressure and heart rate was recorded using a Biopac MP-100 Acquisition System. Animals were allowed to acclimate and stabilize for a period of 20 minutes.\nEach animal was challenged with MCh (0.3 mg/kg, IV) administered through the jugular venous line and the cardiovascular response was monitored for 10 minutes. […] At 1.5 and 24 h post-dosing, the animals were re-challenged with MCh (0.3 mg/kg, IV) and the hemodynamic response was determined. […]",
  "data": [
    {"smiles": "O=C(CCN1CCC(OC(=O)Nc2ccccc2-c2ccccc2)CC1)Nc1ccc(CNCc2ccc(O)cc2)cc1", "note": "[Example 1, Biphenyl-2-ylcarbamic Acid 1-(2-{4-[(4-Hydroxybenzylamino)methyl]phenylcarbamoyl}ethyl)piperidin-4-yl Ester]", "values": [
      {"measurement": "apparent lung-selectivity index (ratio of anti-depressor ID50 to bronchoprotective ID50)", "result": "greater than 5"}
    ]}
  ]
}
